Experimental data: patent US10016480B2, “Peptide-based methods for treating pancreatic cancer” (The United States of America, as represented by the …, priority 2014, dated 2018)
No end group written: not given here.

Experiment: Serum stability
Type: in vitro ADME

- stability in serum: stable in serum
Sequence: FAKKFAKKFK [Peptide B, Phe-Ala-Lys-Lys-Phe-Ala-Lys-Lys-Phe-Lys]
